Data as given in patent publication EP0920324B1, “PURE BIOLOGICALLY ACTIVE COLISTIN, ITS COMPONENTS AND A COLISTIN FORMULATION FOR TREATMENT OF PULMONARY INFECTIONS” (PATHOGENESIS CORPORATION, priority 1996, dated 1998).
Where a SMILES comes first, the peptide text is derived from it. Bridges are numbered along the chain shown (N, C = ends). [ ]: non-standard residue; d: D form. The star is where a group is joined. Octanoyl(6-Me) = CCC(C)CCCCC(=O)*; Dab = NCC[CH](N)C(=O)O

What was measured:
[1] = Gravimetric titration with HCl to determine pKa
Protocol: 107 mg of dry free base was suspended in 10.7 ml of deionized water and 1.21 M HCl was added under constant measurement of pH.
In order to determine the pKa of colistin component IV by titration, 107 mg of dry free base was suspended in 10.7 ml of deionized water in a 20 ml glass screwcap vial and stirred by magnetic stirrer. A calibrated Beckman Phi-10 pH meter with a Futura Plus combination electrode was placed in the suspension and the pH of the solution was monitored during the addition of 1.21 M HCl.

[2] = human, in vivo, iv; cited from earlier work
[3] = Jet nebulization (Pari LC Jet nebulizer), aerosol characterized by laser diffraction particle analyzer; format: physicochemical
Protocol: Colistin component IV sulfate was dissolved in 120 mM sodium chloride, and the pH was adjusted to 7.0 with 1 molar sodium hydroxide.
Four ml of solution to be nebulized was placed in a Pari LC Jet nebulizer fitted with a Pulmonaide Compressor (DeVilbiss Model 5650D) with an air flow rate of 4-6 liters/minute. Aerosols generated are characterized by passing through a laser diffraction particle analyzer (Malvern Mastersizer X). Each formulation was analyzed multiple times to determine reproducibility of results, which were expressed as total obscuration time, mass median average diameter, and respirable fraction.
Results are shown in Figure 18, which is a comparison of the-times required for aerosolization of 4 mL of the three solutions. The two drug solutions were analyzed three times, and saline was analyzed four times. Bars show standard deviations of measurements.
Colistin component IV sulfate or hydrochloride formulations were as described above in Example 15.
Four ml of solution to be nebulized was placed in a Pari LC Jet nebulizer fitted with a Pulmonaide Compressor, DeVilbiss Model 5650D, with an air flow rate of 4-6 liters/minute. Aerosol generated was characterized by passing through a Malvern Mastersizer X laser diffraction particle analyzer. Each formulation was analyzed multiple times to determine reproducibility of results, which were expressed as total obscuration time, mass median particle diameter, and respirable fraction.
Mass median particle diameters were expressed as average ± standard deviation (n) for aerosols.
Average respirable fractions were calculated as average percentage of particles ranging from 1 micron to 6 microns in diameter within the aerosol over time.

[4] = Solution pH monitored over time after dissolution; format: physicochemical; conditions: 10.0, 15.0 and 20.0 mg/ml in water
Protocol: These values correspond to concentrations of 3.7 mg/ml, 5.6 mg/ml and 7.4 mg/ml colistin base equivalent. Solution pH was monitored continuously at various times from 1 minute to 180 minutes and pH values and times were recorded.
Determination of component IV stability at physiologic pH was made by dissolving purified colistin component IV sulfate or hydrochloride at a concentration of 20 mg/ml in sterile water containing 120 mM NaCl. The solution was mixed and pH was monitored. A 10 N NaOH solution was used to adjust the solution pH to 6.95-7.00. Results are seen in Figure 16.
These values correspond to concentrations of 3.7 mg/ml, 5.6 mg/ml and 7.4 mg/ml colistin base equivalent. Solution pH was then monitored continuously using a Beckman Phi-10 pH meter fitted with a Beckman Futura Plus combination electrode calibrated at pH 4.0 and 7.0 as per manufacturer's instructions prior to use. At various times from 1 minute to 180 minutes, pH values and times were recorded.

[5] = human, in vivo; cited from earlier work
[6] = human, in vivo, 1 h; cited from earlier work
[7] = test system: Pseudomonas aeruginosa; test: Time kill kinetic studies (bactericidal activity); format: cell-based
Protocol: Henry D. Isenberg, ASM, Washington, DC (1992). The exact procedure is described in Example 14.
Briefly, tests were similar to those used for determining MICs, except that the final test volume was larger (10 mL) to allow sampling at various time points. […] Cultures were incubated at 37°C. At initial set-up and at various time-points, cultures were plated, with or without further dilution, onto sheep blood agar plates. Plates were incubated for 18-24 hours, and the number of CFU/mL was determined and plotted to determine the percentage of surviving organisms and the time required to achieve 99.9% killing. Results are seen in Figure 15.
Colony-forming unit (CFU) per ml were determined and plotted against drug exposure time in hours.
Time kill kinetic studies were performed as described in (Antimicrobial Susceptibility Testing, Section 5.16. Tests to assess bactericidal activity, in Clinical Microbiology Procedure Handbook (supra).
Tests were set in the same way used for determining MICs (Example 13), except that the final test volume was larger (10 mL) to allow sampling at various time points. Cultures were incubated at 37°C. At initial set-up and at various desired time-points, cultures were sampled and plated (with or without further dilution) onto sheep blood agar plates. Plates were incubated for 18-24 hours, and the number of CFU/mL was determined and plotted to determine the percentage of surviving organisms and the time required to achieve 99.9% killing.

[8] = average ± standard deviation, n = 3, 20 mg/ml solutions

Molecule	pKa ([1]; free base suspended in deionized water, titrated with 1.21 M HCl)	pKa ([1]; water)	occurrence of nephrotoxicity symptoms [2]	occurrence of neurotoxicity symptoms [2]	mean aerosolization time ([3]; 4 mL of 20 mg/ml solution, colistin component IV sulfate in 120 mM NaCl, isotonic, pH balanced, colimycin in 1/4 N saline, n = 3) [min]	average respirable fraction (particles ranging from 1 micron to 6 microns in diameter) [3, 8] [percentage]	mass median particle diameter of the aerosol [3, 8] [microns]	pH of solution within 3 minutes [4]	patients reporting bronchoconstriction response as chest tightness [5]	drug converted to colistin in an hour [6] [%]	eradication of the Pseudomonas aeruginosa organism ([7]; 8 µg/mL, at 4 hours of testing)	killing of test organism ([7]; 16 µg/mL, at 3 hours)	time at which over 5 logs killing was shown ([7]; 64µg/mL) [hours]	concentration required for a similar level of killing (over 5 logs within 2 hours) ([7]; freshly dissolved) [µg/ml]
CCC(C)CCCCC(=O)NC(CCN)C(=O)NC(C(=O)NC(CCN)C(=O)NC1CCNC(=O)C(C(C)O)NC(=O)C(CCN)NC(=O)C(CCN)NC(=O)C(CC(C)C)NC(=O)C(CC(C)C)NC(=O)C(CCN)NC1=O)C(C)O (centres unmarked) [colistin component IV] ({Octanoyl(6-Me)}-[Dab]T[Dab][Dab][Dab]LL[Dab][Dab]T; lactam 4-C; configuration not given here)	approximately 9.0	~9	–	–	–	–	–	–	–	–	–	–	–	–
colimycin	–	–	about 5 % cases	about 29 % cases	10.53	58.77 ± 2.03	4.11 ± 0.29	> 7.5	approximately 65%	~3	did not, even at 4 hours of testing, eradicate the Pseudomonas aeruginosa organism	over 5 logs	1.5	32
